In patent publication US20140193531A1, “Aqueous extracts of deschampsia antarctica” (Uxmal S.A, priority 2012, published 2014):

Experiments:
[1] = system: HaCaT cells; assay type: cell-based, human
Experimental: For this assay, 100,000 cells were seeded in a 24-well plate at a total volume of 500 ul in a complete culture medium. After incubating for 24 hours at 37° C. in an atmosphere of 5% CO2, the cells were irradiated with different concentrations of UV light in an irradiation system inside a type 2 biosafety laminar flow hood. The system consisted of 2 florescent tubes, one UVA-emitting 36 W PL-L (320-400 nm) and one UVB-emitting 20 W TL (290-320 nm) (Philips, Eindhoven, the Netherlands). Both tubes were located 5 cm from the bottom of the well to produce homogeneous irradiation intensity. The irradiation intensity was monitored with radiometers for UVB (Solarmeter 6.2 digital UVB radiometer, Solartech Inc., Harrison Township, Mich.) and UVA (Tecpel, CHY-732, Taiwan). The HaCaT cells were irradiated at different time intervals (Table 5) to reach the different accumulative doses of UVA and UVB (Gao et al. 2007). After irradiation with UVA+UVB light, the cells were incubated for 24 hours and the viability of the cells was measured with the MTS assay.
In this assay, 100,000 cells were seeded in a 24-well plate. After incubating for 24 hours at 37° C. in an atmosphere of 5% de CO2, the cells were washed with PBS and incubated with AEDA doses of between 4.5 and 0.5 mg/ml previously diluted in PBS. […]

[2] = system: IL-6 secretion in TNFα-stimulated 3T3-L1 adipocytes; assay: TNFα-stimulated IL-6 secretion in 3T3-L1 adipocytes; assay type: cell-based, Mouse; settings: data not shown
Experimental: Post-differentiation, D6/D7 adipocytes were treated with test material 4 h prior to the addition of TNFα at a final concentration of 10 ng/mL. Following overnight incubation of approximately 18 h, the supernatant media were removed and assayed for IL-6. IL-6 secreted into the medium in response to TNFα stimulation was quantified using the Quantikine® Mouse IL-6 Immunoassay kit Immunoassay kit with no modifications (R&D Systems, Minneapolis, Minn.). Experiments assessing the anti-inflammatory activity of the test samples were repeated a minimum of 2 independent times. For statistical analysis, the effects of test materials IL-6 secretion were normalized, respectively, to the TNFα positive control to generate IL-6 indexes. Differences among the treatments were determined by analysis of variance and student's least significant difference test without correction for multiple comparisons; the nominal 5% probability of a type I error was used. Ninety-five percent CI were computed using the ANOVA error mean square estimate of variance (Excel®, Microsoft, Redmond, Wash.).

SMILES | effect on irradiated keratinocytes at higher doses [1] | increase of IL-6 secretion above the TNFα positive control [2]
COc1cc(/C=C/C(=O)O)ccc1O [ferulic acid] | possible photocytotoxic effect | –
C=C[C@@]1(C)CC(=O)[C@]2(O)[C@@]3(C)[C@@H](O)CCC(C)(C)[C@@H]3[C@H](O)[C@H](OC(C)=O)[C@@]2(C)O1 [Forskolin] | – | over 100%
